System: SHRs
Experiment: Telemetric monitoring of conscious SHRs during dobutamine infusion
Assay type: in vivo, rat (SHR)
Method: Two days after catherization of the jugular vein, control values were taken and 1 mg/kg β1-AS-ODN was injected. 48 hr later, rats were tested for the effect of β1-AS-ODN. The rats were allowed to recover until all the cardiovascular parameters returned to control values. […] For β1-stimulation, SHRs were infused with dobutamine (β1-selective agonist) through a jugular vein catheter at 5, 10, 20, and 40 μg·kg^−1·min.^−1. Each dose was given for 5 min. continuously and at 1-hr intervals until all the cardiovascular parameters returned to baseline values so as to avoid the effect of tachyphylaxis. BP and HR were sampled every 1 min. dP/dtmax was calculated from the slope of the rising pulse-pressure curve and determined every 1 min. The difference between values at each dose and baseline was denoted as Δ.
Two days after catheterization of jugular vein, control values were taken and 1 mg/kg β1-AS-ODN was injected. Forty-eight hr later, rats were tested for the effect of β1-AS-ODN. The rats were allowed to recover until all the cardiovascular parameters returned to control values. […] For β1-stimulation, SHR were infused with dobutamine (β1-selective agonist) through jugular vein catheter at 5, 10, 20, 40 μg/kg/min. Each dose was given for 5 min continuously and at 1-hr intervals until all cardiovascular parameters returned to baseline so as to avoid the effect of tachyphylaxis. BP and HR were sampled every min. dP/dtmax was calculated from the slope of the rising pulse pressure curve and determined every min. The difference between values at each dose and baseline was denoted as Δ.

5′-CCGCGCCCATGCCGA-3′ (phosphorothioate backbone, further chemistry not given here) [β1-AS-ODN, 15-mer antisense ODN targeted to the AUG start codon of rat β1-AR mRNA]
basal (resting) HR (1 mg/kg, control 365±8): 365±12 bpm
basal dP/dtmax (1 mg/kg, control 2937±277): 2922±249 mm Hg/s
resting dP/dtmax (1 mg/kg, control 2937±277): 2922±249 mmHg/sec
change in HR in the face of dobutamine (48 hr after 1 mg/kg): not significantly reduced
increase in dP/dtmax in the face of dobutamine (48 hr after 1 mg/kg): significantly (P<0.02) dampened
